# Laboratory results taken from US7074789B2, “Kinase inhibitors” (Amgen Inc., priority 1999, dated 2006).
# Tests used:
# Type in all cases: biochemical
# Lck = target: T1, Lck (Homo sapiens, UniProt P06239); experiment: Kinase inhibition assay (33P transfer), Lck; conditions: read-out: Lck-1
# T1 construct: Kinases are expressed as either kinase domains or full length constructs; made in house
# Summary of the method: (§1)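 Enzyme activity is taken as the amount of 33PO4 moved from ATP onto poly(Glu, Tyr) 4:1 or poly(Arg, Ser) 3:1 fixed to the plate surface. Unbound label is removed with 0.5% phosphoric acid before scintillation counting.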
# Zap-70 = target: T2, Zap-70 (Homo sapiens, UniProt P43403); experiment: Kinase inhibition assay (33P transfer), Zap-70; conditions: read-out: Zap-1
# T2 construct: Kinases are expressed as either kinase domains or full length constructs; made in house
# T2 sequence (P43403 1-619): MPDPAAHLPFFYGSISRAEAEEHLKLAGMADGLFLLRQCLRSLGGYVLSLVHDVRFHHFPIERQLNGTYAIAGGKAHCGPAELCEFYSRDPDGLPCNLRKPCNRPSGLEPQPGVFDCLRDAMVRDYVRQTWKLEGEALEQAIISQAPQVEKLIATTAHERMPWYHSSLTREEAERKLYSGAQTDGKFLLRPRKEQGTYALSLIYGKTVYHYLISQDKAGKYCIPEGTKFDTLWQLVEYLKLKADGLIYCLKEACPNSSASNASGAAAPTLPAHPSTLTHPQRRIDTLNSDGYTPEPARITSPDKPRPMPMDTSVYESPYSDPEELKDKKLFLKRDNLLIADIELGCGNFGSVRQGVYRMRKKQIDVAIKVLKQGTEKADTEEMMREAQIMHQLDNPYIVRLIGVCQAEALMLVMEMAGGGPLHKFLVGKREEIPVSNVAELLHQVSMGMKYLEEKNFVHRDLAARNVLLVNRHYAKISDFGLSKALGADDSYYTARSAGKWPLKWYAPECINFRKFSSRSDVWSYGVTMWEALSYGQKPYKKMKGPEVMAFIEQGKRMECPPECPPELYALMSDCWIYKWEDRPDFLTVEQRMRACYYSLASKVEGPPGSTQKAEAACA
# Summary of the method: as §1
# Itk = target: T3, Itk (Homo sapiens, UniProt Q08881); experiment: Kinase inhibition assay (33P transfer), Itk; conditions: read-out: Itk-1
# T3 construct: Kinases are expressed as either kinase domains or full length constructs; made in house
# T3 sequence (Q08881 1-620): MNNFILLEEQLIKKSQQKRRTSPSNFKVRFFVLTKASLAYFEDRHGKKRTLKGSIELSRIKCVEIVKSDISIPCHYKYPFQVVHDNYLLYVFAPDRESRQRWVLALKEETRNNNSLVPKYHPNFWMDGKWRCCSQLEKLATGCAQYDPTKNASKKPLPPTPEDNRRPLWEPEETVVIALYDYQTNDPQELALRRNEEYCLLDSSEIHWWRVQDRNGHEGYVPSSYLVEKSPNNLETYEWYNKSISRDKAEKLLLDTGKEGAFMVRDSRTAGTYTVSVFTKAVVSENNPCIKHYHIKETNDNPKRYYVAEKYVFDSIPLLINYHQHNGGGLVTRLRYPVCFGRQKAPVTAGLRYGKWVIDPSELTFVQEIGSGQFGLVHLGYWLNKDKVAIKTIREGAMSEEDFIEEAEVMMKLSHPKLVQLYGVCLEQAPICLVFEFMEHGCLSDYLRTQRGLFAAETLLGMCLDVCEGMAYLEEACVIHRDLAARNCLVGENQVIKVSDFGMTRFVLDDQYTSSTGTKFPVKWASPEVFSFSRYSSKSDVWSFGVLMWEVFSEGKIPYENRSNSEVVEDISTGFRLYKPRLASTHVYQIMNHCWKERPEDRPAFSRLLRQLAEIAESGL
# Summary of the method: (§2)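 Each enzyme, purified to near homogeneity by affinity chromatography, was incubated with ATP carrying 33P and a substrate polymer fixed to the plate. Unbound label was removed with dilute phosphoric acid (0.5%) before adding scintillant and counting. Potency is given as the compound level cutting label uptake by 50%.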
# EGFR = target: T4, EGFR (Homo sapiens, UniProt P00533); experiment: Kinase inhibition assay (33P transfer), EGFR; conditions: Table 2, kinase inhibition class; read-out: EGFR-1
# T4 construct: Kinases are expressed as either kinase domains or full length constructs; made in house
# Summary of the method: as §2
# ErbB2 = target: T5, ErbB2 (Homo sapiens, UniProt P04626); experiment: Kinase inhibition assay (33P transfer), ErbB2; conditions: read-out: ErbB2-2
# T5 construct: Kinases are expressed as either kinase domains or full length constructs; made in house
# Summary of the method: as §2
# Kdr = target: T6, Kdr (Homo sapiens, UniProt P35968); experiment: Kinase inhibition assay (33P transfer), Kdr; conditions: read-out: KDR-1
# T6 construct: Kinases are expressed as either kinase domains or full length constructs; made in house
# Summary of the method: as §1
# c-Met = target: T7, c-Met (Homo sapiens, UniProt P08581); experiment: Kinase inhibition assay (33P transfer), c-Met; conditions: Table 2, kinase inhibition class; read-out: Met-1
# T7 construct: Kinases are expressed as either kinase domains or full length constructs; made in house
# Summary of the method: as §2
# AKT = target: T8, AKT (Homo sapiens, UniProt Q9Y243); experiment: Kinase inhibition assay (33P transfer), AKT; conditions: Table 2, kinase inhibition class; read-out: AKT3-1
# T8 construct: Kinases are expressed as either kinase domains or full length constructs; made in house
# Summary of the method: as §1
# IGFR-1 = target: T9, IGFR-1 (Homo sapiens, UniProt P08069); experiment: Kinase inhibition assay, IGFR-1 (Table 2); conditions: Table 2, kinase inhibition class
# T9 construct: Kinases are expressed as either kinase domains or full length constructs; made in house
# PDGFRB = target: T10, PDGFRB (Homo sapiens, UniProt P09619); experiment: Kinase inhibition assay (33P transfer), PDGFRB; conditions: read-out: PDGFRB-1
# T10 construct: Kinases are expressed as either kinase domains or full length constructs; made in house
# T8 sequence (Q9Y243 whole entry, the tested form may be a part): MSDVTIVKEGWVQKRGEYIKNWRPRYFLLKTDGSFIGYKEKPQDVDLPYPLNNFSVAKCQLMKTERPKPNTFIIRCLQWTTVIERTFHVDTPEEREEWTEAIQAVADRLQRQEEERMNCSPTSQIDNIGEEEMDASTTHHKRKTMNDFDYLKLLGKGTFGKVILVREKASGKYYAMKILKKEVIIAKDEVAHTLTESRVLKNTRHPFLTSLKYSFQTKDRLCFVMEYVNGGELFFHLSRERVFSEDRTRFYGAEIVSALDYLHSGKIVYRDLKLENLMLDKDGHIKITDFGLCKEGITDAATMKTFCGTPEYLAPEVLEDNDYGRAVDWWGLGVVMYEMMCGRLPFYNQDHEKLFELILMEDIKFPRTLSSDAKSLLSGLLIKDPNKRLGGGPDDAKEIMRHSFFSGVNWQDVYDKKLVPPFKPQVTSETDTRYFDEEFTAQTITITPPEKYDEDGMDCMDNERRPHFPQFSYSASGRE
# T5 sequence (P04626 23-1255, species assumed): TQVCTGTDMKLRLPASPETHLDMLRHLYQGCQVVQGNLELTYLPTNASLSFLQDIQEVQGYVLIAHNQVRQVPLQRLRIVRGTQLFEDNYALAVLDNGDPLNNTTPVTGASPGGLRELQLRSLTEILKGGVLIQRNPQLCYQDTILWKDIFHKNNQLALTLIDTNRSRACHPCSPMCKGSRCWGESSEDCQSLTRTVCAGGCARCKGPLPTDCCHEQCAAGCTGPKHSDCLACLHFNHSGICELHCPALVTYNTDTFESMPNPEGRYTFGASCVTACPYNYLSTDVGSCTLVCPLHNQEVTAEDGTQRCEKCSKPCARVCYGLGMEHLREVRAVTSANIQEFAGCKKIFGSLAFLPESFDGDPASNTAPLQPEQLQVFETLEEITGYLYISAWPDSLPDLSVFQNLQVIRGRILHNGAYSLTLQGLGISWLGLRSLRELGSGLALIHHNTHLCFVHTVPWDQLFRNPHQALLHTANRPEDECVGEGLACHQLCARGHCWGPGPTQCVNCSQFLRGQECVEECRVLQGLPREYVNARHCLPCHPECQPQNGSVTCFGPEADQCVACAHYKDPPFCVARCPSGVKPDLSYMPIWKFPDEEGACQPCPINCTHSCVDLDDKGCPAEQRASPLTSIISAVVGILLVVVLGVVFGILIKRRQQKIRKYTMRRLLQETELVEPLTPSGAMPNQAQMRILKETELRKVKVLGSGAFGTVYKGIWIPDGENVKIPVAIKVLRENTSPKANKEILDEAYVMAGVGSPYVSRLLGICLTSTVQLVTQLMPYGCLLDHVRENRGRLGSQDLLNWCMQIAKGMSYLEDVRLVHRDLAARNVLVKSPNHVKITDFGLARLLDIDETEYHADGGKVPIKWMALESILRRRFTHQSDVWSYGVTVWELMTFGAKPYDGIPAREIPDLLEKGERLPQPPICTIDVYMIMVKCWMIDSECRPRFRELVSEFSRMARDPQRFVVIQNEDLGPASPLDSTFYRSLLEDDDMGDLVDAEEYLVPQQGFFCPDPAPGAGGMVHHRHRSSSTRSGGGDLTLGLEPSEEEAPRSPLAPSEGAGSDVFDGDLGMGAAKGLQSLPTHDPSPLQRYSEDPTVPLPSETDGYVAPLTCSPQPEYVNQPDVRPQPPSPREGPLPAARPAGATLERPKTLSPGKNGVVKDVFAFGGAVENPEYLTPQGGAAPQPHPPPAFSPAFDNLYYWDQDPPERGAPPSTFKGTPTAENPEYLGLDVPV
# T1 sequence (P06239 whole entry, species assumed, the tested form may be a part): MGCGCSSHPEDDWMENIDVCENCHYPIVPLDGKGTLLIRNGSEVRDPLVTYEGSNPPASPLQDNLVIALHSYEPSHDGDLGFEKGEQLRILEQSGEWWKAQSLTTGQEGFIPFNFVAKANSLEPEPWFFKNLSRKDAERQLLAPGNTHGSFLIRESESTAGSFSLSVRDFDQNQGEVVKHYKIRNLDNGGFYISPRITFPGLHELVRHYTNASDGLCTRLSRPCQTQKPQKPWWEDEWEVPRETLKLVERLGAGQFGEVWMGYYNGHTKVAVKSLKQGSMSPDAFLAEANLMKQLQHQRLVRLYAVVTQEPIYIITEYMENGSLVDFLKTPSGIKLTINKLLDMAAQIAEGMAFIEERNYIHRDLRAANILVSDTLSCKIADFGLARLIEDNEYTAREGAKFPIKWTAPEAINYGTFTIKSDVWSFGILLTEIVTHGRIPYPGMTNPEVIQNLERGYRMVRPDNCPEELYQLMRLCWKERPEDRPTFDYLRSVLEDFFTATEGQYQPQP
# T4 sequence (P00533 25-1210, species assumed): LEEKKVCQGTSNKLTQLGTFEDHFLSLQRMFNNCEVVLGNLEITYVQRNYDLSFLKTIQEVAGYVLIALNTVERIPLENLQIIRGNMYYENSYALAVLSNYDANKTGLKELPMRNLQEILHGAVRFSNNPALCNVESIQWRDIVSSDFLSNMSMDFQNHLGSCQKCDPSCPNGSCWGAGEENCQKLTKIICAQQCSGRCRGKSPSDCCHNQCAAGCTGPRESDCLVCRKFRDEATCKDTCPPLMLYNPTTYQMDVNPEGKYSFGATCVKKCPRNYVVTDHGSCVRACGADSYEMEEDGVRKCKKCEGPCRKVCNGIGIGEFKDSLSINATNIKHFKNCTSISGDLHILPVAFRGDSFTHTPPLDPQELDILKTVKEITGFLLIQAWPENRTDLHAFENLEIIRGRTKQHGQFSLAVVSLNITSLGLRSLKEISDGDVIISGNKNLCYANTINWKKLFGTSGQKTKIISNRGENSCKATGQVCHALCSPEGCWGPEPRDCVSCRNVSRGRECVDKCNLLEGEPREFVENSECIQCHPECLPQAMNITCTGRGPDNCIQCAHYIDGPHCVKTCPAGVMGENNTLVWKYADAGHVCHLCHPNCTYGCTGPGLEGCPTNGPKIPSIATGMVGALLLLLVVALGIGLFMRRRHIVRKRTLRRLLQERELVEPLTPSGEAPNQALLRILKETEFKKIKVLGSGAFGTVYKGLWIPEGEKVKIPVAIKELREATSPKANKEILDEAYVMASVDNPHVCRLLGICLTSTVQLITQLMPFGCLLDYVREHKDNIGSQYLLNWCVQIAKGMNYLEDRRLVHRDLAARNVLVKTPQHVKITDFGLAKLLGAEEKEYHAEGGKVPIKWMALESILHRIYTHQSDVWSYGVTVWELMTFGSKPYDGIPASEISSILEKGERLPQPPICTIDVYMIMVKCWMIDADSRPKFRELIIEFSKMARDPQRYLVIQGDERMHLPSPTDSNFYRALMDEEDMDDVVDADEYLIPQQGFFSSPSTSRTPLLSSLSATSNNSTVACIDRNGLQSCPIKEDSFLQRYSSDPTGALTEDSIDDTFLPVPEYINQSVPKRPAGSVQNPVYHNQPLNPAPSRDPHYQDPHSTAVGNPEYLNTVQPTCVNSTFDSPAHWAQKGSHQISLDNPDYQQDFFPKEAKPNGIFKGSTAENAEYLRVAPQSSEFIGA
# T7 sequence (P08581 25-1390): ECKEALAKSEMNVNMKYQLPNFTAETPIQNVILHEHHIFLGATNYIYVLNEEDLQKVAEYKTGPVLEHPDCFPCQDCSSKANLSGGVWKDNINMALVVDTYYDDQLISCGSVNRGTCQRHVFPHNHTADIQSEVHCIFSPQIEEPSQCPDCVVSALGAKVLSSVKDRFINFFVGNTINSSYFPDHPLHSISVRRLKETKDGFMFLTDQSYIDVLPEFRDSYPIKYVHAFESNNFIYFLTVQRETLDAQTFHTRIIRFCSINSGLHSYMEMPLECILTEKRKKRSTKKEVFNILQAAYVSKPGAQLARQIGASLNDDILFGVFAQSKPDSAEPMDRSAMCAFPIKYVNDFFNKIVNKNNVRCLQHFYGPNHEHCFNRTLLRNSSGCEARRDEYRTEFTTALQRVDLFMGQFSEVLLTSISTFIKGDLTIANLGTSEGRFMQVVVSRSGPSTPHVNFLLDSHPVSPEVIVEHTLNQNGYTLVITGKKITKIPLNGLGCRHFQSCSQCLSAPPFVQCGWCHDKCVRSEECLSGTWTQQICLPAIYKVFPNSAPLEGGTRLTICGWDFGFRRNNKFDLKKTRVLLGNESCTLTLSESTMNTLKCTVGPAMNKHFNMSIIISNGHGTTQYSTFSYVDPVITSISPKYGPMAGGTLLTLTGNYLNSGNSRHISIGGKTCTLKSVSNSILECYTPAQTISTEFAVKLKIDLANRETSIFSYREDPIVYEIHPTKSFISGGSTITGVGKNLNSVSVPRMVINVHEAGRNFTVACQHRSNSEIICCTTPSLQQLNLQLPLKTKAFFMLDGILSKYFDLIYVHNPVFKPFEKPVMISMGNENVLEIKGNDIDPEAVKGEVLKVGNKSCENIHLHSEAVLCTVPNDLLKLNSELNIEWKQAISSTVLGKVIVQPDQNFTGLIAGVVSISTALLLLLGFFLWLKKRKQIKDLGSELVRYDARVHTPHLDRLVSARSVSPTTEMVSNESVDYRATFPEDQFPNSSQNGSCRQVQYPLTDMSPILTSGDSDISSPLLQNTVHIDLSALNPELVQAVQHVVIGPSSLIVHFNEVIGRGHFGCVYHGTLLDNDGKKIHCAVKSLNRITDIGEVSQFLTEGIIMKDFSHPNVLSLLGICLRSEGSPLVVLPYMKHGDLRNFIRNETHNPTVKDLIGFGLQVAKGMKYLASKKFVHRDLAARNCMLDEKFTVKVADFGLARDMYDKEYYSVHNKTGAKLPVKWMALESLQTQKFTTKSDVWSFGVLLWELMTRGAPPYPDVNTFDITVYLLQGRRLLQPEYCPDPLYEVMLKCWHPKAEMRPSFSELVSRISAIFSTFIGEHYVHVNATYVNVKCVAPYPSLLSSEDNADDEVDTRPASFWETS
Structure (SMILES),IC50 (Lck) [µM],IC50 (Zap-70) [µM],IC50 (Itk) [µM],IC50 (EGFR) [µM],IC50 (ErbB2) [µM],IC50 (Kdr) [µM],IC50 (c-Met) [µM],IC50 (AKT) [µM],IC50 (IGFR-1) [µM],IC50 (PDGFRB) [µM]
CN(c1cccc(Cl)c1)c1ncnc(Nc2ccc(F)c(Cl)c2)n1 [Compound 703],> 12.4,> 12.4,> 12.4,< 1.1,9.61 to 12.4,> 12.4,> 12.4,> 12.4,> 12.4,> 12.4
COc1ccc2c(c1)CCCN2c1ncnc(Nc2cc(OC)c(OC)c(OC)c2)n1 [Compound 631],< 0.945,> 10.6,> 10.6,0.945 to 5.67,0.945 to 5.67,< 0.945,< 0.945,> 10.6,0.945 to 5.67,< 0.945
CN(c1cccc(Cl)c1)c1ncnc(Nc2ccc(Cl)c(Cl)c2)n1 [Compound 708],> 11.8,6.3 to 9.19,> 11.8,> 11.8,> 11.8,> 11.8,> 11.8,> 11.8,> 11.8,> 11.8
Cc1cccc(Nc2ncnc(N(C)c3cccc(Br)c3)n2)c1 [Compound 666],6.48 to 9.45,> 12.2,> 12.2,< 1.08,1.08 to 6.48,> 12.2,6.48 to 9.45,> 12.2,> 12.2,9.45 to 12.2
CCN(c1ccc(C)cc1)c1ncnc(Nc2cc(OC)c(OC)c(OC)c2)n1 [Compound 538],1.01 to 6.07,> 11.4,8.85 to 11.4,< 1.01,1.01 to 6.07,< 1.01,< 1.01,> 11.4,< 1.01,1.01 to 6.07
COc1cc(Nc2ncnc(N[C@@H]3CCCc4ccccc43)n2)cc(OC)c1OC [Compound 620],0.982 to 5.89,8.59 to 11,> 11,0.982 to 5.89,8.59 to 11,8.59 to 11,5.89 to 8.59,> 11,> 11,> 11
c1ccc(Cn2ncc3cc(Nc4ncnc(Nc5ccc(N6CCCCC6)cc5)n4)ccc32)cc1 [Compound 735],> 9.44,5.04 to 7.34,7.34 to 9.44,< 0.839,0.839 to 5.04,0.839 to 5.04,7.34 to 9.44,5.04 to 7.34,7.34 to 9.44,> 9.44
Nc1nc2ccccc2n1-c1ncnc(Nc2cccc(CC(=O)O)c2)n1 [Compound 544],> 12.5,> 12.5,> 12.5,> 12.5,> 12.5,< 1.11,> 12.5,> 12.5,< 1.11,1.11 to 6.64
Fc1ccc(Nc2ncnc(Nc3ccc4cn[nH]c4c3)n2)cc1Cl [Compound 719],> 12.6,> 12.6,> 12.6,< 1.12,6.75 to 9.84,1.12 to 6.75,> 12.6,> 12.6,> 12.6,> 12.6
CN1CCN(Cc2cccc(Nc3ncnc(Nc4cccc5ccccc45)n3)c2)CC1 [Compound 551],> 10.6,> 10.6,> 10.6,> 10.6,> 10.6,> 10.6,8.22 to 10.6,> 10.6,> 10.6,> 10.6
CN(c1cccc(Cl)c1)c1ncnc(NCC2CCCO2)n1 (centres unmarked) [Compound 739],> 14.1,> 14.1,> 14.1,1.25 to 7.5,> 14.1,> 14.1,> 14.1,> 14.1,> 14.1,> 14.1

# More lines, now with the values ahead:
IC50 (Lck) [µM],IC50 (Zap-70) [µM],IC50 (Itk) [µM],IC50 (EGFR) [µM],IC50 (ErbB2) [µM],IC50 (Kdr) [µM],IC50 (c-Met) [µM],IC50 (AKT) [µM],IC50 (IGFR-1) [µM],IC50 (PDGFRB) [µM],Structure (SMILES)
1.07 to 6.41,> 12,1.07 to 6.41,1.07 to 6.41,1.07 to 6.41,1.07 to 6.41,< 1.07,> 12,1.07 to 6.41,< 1.07,Cc1ccc2c(c1)CCCN2c1ncnc(Nc2ccc3ncsc3c2)n1 [Compound 773]
> 13.6,> 13.6,> 13.6,> 13.6,1.21 to 7.24,> 13.6,> 13.6,> 13.6,> 13.6,10.6 to 13.6,COc1ccc(Nc2ncnc(NC[C@@H]3CCCO3)n2)cc1OC [Compound 790]
> 13.7,> 13.7,> 13.7,> 13.7,> 13.7,> 13.7,> 13.7,> 13.7,> 13.7,> 13.7,CCOC(=O)CNc1ncnc(N2CCCc3cc(C)ccc32)n1 [Compound 761]
> 13,> 13,> 13,6.92 to 10.1,> 13,> 13,> 13,> 13,> 13,> 13,CN(c1cccc(Cl)c1)c1ncnc(NCCN2CCCCC2)n1 [Compound 740]
1.09 to 6.53,1.09 to 6.53,1.09 to 6.53,< 1.09,1.09 to 6.53,1.09 to 6.53,1.09 to 6.53,> 12.2,1.09 to 6.53,1.09 to 6.53,CN(c1cccc(Cl)c1)c1ncnc(Nc2cc(-c3ccco3)[nH]n2)n1 [Compound 753]
> 12.7,> 12.7,> 12.7,> 12.7,> 12.7,> 12.7,> 12.7,> 12.7,> 12.7,> 12.7,Cc1ccc2c(c1)CCCN2c1ncnc(NCCN2CCOCC2)n1 [Compound 776]
> 13,> 13,> 13,> 13,> 13,> 13,> 13,> 13,> 13,> 13,Cc1ccc2c(c1)CCCN2c1ncnc(NCCc2cccnc2)n1 [Compound 775]
> 11.7,> 11.7,> 11.7,> 11.7,9.1 to 11.7,9.1 to 11.7,6.24 to 9.1,> 11.7,> 11.7,> 11.7,Cc1ccc2c(c1)CCCN2c1ncnc(NCCc2c[nH]c3ccccc23)n1 [Compound 768]
> 11,> 11,> 11,0.978 to 5.87,> 11,> 11,> 11,> 11,> 11,> 11,CN(c1cccc(Cl)c1)c1ncnc(NC2CCN(Cc3ccccc3)CC2)n1 [Compound 752]
